Results reported in US8664405B2, “Sulfonic acid salt compound of 4-carbamoyl-5-hydroxy-imidazole derivative” (Fujifilm Corporation, priority 2007, dated 2014).

Assays:
[1] = Storage stability (general statements); assay type: physicochemical; details: solid; no test conditions given
[2] = Evaluation of the storage stability in an aqueous solution (UV-Vis spectra); assay type: physicochemical; details: dilute aqueous solution, room temperature, after 60 days
Procedure: (Evaluation 2) Evaluation of the Storage Stability in an Aqueous Solution
SM-108 obtained in Example 1 and hydrochloric acid salt of SM-108 obtained in Example 3 were dissolved into water to dilute aqueous solutions. UV-Vis spectra of those solutions were recorded just after making solutions and after leaving at room temperature for 60 days.

[3] = Evaluation of the storage stability in crystalline state by visual observation; assay type: physicochemical; details: autoclave at 120° C. under a saturated vapor of water for 30 minutes
Procedure: (Evaluation 1) Evaluation of the Storage Stability in Crystalline State by Visual Observation
SM-108 [2] obtained in Example 1 and benzensulfonic acid salt of SM-108 [5] obtained in Example 2 were placed in an autoclave at 120° C. under a saturated vapor of water for 30 minutes.

[4] = clinical trial by Sumitomo Pharmaceuticals in 1980s; cited from earlier work

SMILES	storage stability [1]	change of UV-Vis absorption spectrum of aqueous solution [2]	colour of the crystalline substance after treatment (visual observation) [3]	clinical effect against MDS and CML [4]	colour of aqueous solution [2]
NC(=O)c1nc[nH]c1O [SM-108, 4-Carbamoyl-5-hydroxyimidazole]	poor storage stability	a broad absorption appeared in the visible-light region	turned indigo-blue	excellent effects	
NC(=O)c1nc[nH]c1O.O=S(=O)(O)c1ccccc1 [benzensulfonic acid salt of SM-108 [5], benzenesulfonic acid salt of SM-108]			remained colorless		
Cl.NC(=O)c1nc[nH]c1O [hydrochloric acid salt of SM-108]		did not change at all			remained colorless
